Tests used:
[1] = target: T1, sphingosine-1-phosphate receptor 4 (S1P4) (Homo sapiens, UniProt O95977); settings: cited from earlier work
T1 sequence (O95977 1-384): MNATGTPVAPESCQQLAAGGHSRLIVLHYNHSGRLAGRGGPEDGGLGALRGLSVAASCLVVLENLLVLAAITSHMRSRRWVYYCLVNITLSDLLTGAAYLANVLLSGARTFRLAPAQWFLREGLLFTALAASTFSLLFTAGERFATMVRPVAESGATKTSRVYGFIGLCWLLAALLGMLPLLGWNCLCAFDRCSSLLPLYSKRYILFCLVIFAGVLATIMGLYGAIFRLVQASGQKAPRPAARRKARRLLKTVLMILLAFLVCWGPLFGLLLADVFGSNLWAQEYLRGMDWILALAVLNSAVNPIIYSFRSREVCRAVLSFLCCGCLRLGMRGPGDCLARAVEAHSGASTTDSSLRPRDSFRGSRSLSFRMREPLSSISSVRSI

circulating cholesterol [2] = experiment: Population PK/PD model (Monolix) of circulating cholesterol vs Compound 1 plasma concentration; design: species or system human
From the text: Based on these observations, a population PK/PD model was developed using Monolix to describe circulating cholesterol concentration as a function of plasma concentration of Compound 1 and exposure. The model was developed from cholesterol data from the study described above (Study 1) as well as two additional clinical studies (Study 2 and Study 3) in healthy volunteers. In Study 2, thirty healthy volunteers received a single oral dose of Compound 1 with 6 individual participants per cohort receiving 3 mg (Cohort 1), 10 mg (Cohort 2), 30 mg (Cohort 3), 60 mg (Cohort 4), 100 mg (Cohort 5). There were also 9 participants who received placebo in the study. In Study 3, 8 healthy adult volunteers received a single dose of 30 mg of Compound 1.

circulating cholesterol [3] = experiment: 28-day multiple-dose study in healthy volunteers: circulating cholesterol and serum sterols; format: in vivo, human
Experimental: (§1) Forty-two healthy volunteers received Compound 1 QD for 28 days (or before early withdrawal), with 6 individual participants per cohort receiving 1 mg (Cohort 1), 3 mg (Cohort 2), 10 mg (Cohort 3), 30 mg (Cohort 4), 60 mg loading dose with 10 mg maintenance dosing (Cohort 5) Compound 1, 60 mg (Cohort 6), or 90 mg loading dose on Day 1 and Day 2 with 30 mg maintenance dosing (Cohort 7). There were also 14 participants who received placebo in the study; 1 participant in Cohort 4 was misdosed on Day 19 and appeared to have received at least one 30 mg dose of Compound 1. The following protocol deviations were reported for participants in Cohorts 1 through 5: they received predose water ad lib (not restricted for 1 hour before and 1 hour after dose) and a meal administered 30 minutes postdose (not 4 hours postdose). A total of 49 participants completed treatment, including 37 participants who received active treatment.
(§2) Participants received the first dose of study treatment (Compound 1 or placebo) on Day 1 and continued to receive once-daily study treatment through Day 28. Participants remained in the clinic throughout the dosing period. Participants were discharged on Day 29 after completing all assessments.
Blood was periodically withdrawn from each volunteer and immediately stored at −80° C. For measuring metabolite concentrations in human serum, the samples were centrifuged and the resulting supernatant was used for further analysis.
Free oxysterols were extracted from the samples with methanol using the Biocrates Kit filter plate. The plate was loaded with an internal standard mixture beforehand. The metabolite concentrations were determined by UHPLC-MS/MS with multiple reaction monitoring (MRM) in a positive mode using a SCIEX API 5500 QTRAP® (AB SCIEX, Darmstadt, German) instrument with electrospray ionization (ESI). Data were quantitated using appropriate mass spectrometry software and imported in Biocrates Met/DQ™ software for further analysis.

neutrophils = experiment: Neutrophil and monocyte counts in the healthy volunteer study; format: in vivo, human
Experimental: as §1, §2

human iPSC-derived OPCs = experiment: Human iPSC-derived OPC differentiation (MBP+ cells); format: cell-based; settings: 0.02 and 0.2 μM, 40 days
Experimental: Human induced pluripotent stem cell (iPSC) derived OPCs were maintained in proliferation media, composed of advanced DMEM-F12 supplemented with N2, B27, Glutamax, […] heparin (Sigma), 1 μM purmorphamine (Merck), 20 ng/ml FGF/PDGFa (Peprotech), 10 ng/ml IGF (Peprotech), and 60 ng/ml T3 (Sigma). To allow OPC differentiation, purmorphamine and FGF/PDGF were removed from the culture media. Compound 1 (0.02 and 0.2 μM) was incubated with human iPSC-derived OPCs in the differentiation media for 40 days.

[4] = tested on: cuprizone demyelination in the corpus callosum; experiment: Cuprizone/rapamycin demyelination model; format: in vivo, mouse; settings: oral gavage daily in the last 2 weeks of cuprizone/rapamycin treatment
Experimental: Nine week-old C57/BL6 mice were fed with chow pellets containing 0.3% cuprizone (Harlan) and injected with rapamycin intraperitoneally for 6 weeks (10 mg/kg, 5 days/week). Animals were treated with Compound 1 by oral gavage daily in the last 2 weeks of cuprizone/rapamycin treatment. Animals were sacrificed at the end of the last treatment and brains were dissected to determine the effect of Compound 1 on remyelination in the corpus callosum (white matter) and cerebral cortex regions. Coronal slices (septostriatal section, 1 mm thickness) through the corpus callosum were cut, then cut on the midsagittal plane and embedded in epon, oriented to visualize the entire cross-section of the midsagittal corpus callosum. Myelinated axons in the corpus callosum lesions were quantified by toluidine blue staining. ** p<0.01, *** p<0.001. […] Error bars denote the standard error of the mean. N=39 for the study.

[5] = tested on: human OPC-rat DRG co-culture; experiment: Human OPC-rat DRG co-culture myelination (MBP ICC); format: cell-based; settings: 0.02, 0.2, or 2 μM vs DMSO control
Experimental: Embryonic dorsal root ganglia (DRG), dissected from embryonic day 14 (E14) to day 17 (E17) Sprague Dawley rats, were plated on poly-L-lysine (100 μg/ml)-coated cover slips for 2 weeks and grown in Neurobasal medium supplemented with B27 (Life Technologies). To remove proliferating glial cells, cultures were pulsed twice with fluorodeoxyuridine (20 μM) from days 2-6 and from days 8 to 10. Then human OPCs, prepared as described above, were added to DRG neuron drop cultures. The culture media for rat OPC-DRG co-culture is Neurobasal medium supplemented with B27 and 100 ng/ml NGF with fresh compounds changed twice per week. The culture media for human OPC-rat DRG co-culture is the proliferation media for human OPCs without purmorphamine and FGF/PDGF. Compound 1 (0.02, 0.2, or 2 μM) or DMSO control treatment started 1 day after OPCs were added to DRG culture. To visualize myelination, cultures were fixed by 4% paraformaldehyde (PFA) and labeled with anti-myelin basic protein (MBP) antibodies to identify changes in myelination by ICC.

[6] = tested on: rat A2B5+ oligodendrocytes / DRG neuron co-culture; experiment: OPC/DRG co-culture myelination assay (MBP Western blot); format: cell-based; settings: 13 days co-culture
Experimental: Embryonic dorsal root ganglia (DRG) dissected from embryonic day 14 (E14) to day 17 (E17) Sprague Dawley rats, were plated on poly-L-lysine (100 μg/ml)-coated cover slips for 2 weeks and grown in Neurobasal medium supplemented with B27 (Life technologies). To remove proliferating glial cells, cultures were pulsed twice with fluorodeoxyuridine (20 μM) from days 2-6 and from days 8-10. Then rat A2B5+ oligodendrocytes were added to DRG neuron drop cultures in the presence or absence of compounds at 37° C. with 5% CO2 for 13 days. The culture media (Neurobasal medium supplemented with B27 and 100 ng/ml nerve growth factor (NGF)) with fresh compounds were changed twice per week. Myelination is determined by Western blotting to quantify MBP level.

[7] = tested on: LPC induced corpus callosum demyelination; experiment: LPC induced corpus callosum demyelination model; format: in vivo; settings: rat LPC corpus callosum model
[8] = tested on: LPC induced spinal cord demyelination; experiment: LPC induced spinal cord demyelination model; format: in vivo, rat; settings: oral, daily from Day 3, sacrifice Day 9
rat OPCs = experiment: Sterol metabolite levels in rat OPC cultures (Metabolon HD4); format: cell-based; settings: rat OPC culture
Experimental: Enriched populations of oligodendrocytes from female Sprague Dawley postnatal day 2 (P2) rats were grown in culture. Briefly, the forebrain was dissected and placed in Hank's buffered salt solution (HBSS) (Life technologies). The tissue was cut into 1 mm fragments and incubated at 37° C. for 15 min in 0.01% trypsin and 10 μg/ml DNase. Dissociated cells were plated on poly-D-lysine (PDL)-coated T75 tissue culture flasks and grown at 37° C. for 10 days in Dulbecco's Modified Eagle Medium (DMEM) with 20% fetal calf serum (Life technologies). Oligodendrocyte precursors (A2B5+) were collected by shaking the flask overnight at 200 rpm at 37° C., resulting in a 95% pure population. Cultures were maintained in a defined growth medium (high glucose DMEM, 0.1% BSA, 50 ug/ml Apo-transferrin, 5 ug/ml insulin, 30 nM sodium selenite, 10 nM biotin and hydrocortisone) with 10 ng/ml fibroblast growth factor/platelet-derived growth factor (FGF/PDGF) (Peprotech) for 2-3 days. For assessing the ability of Compound 1 to promote the differentiation of rat A2B5+ progenitor cells into mature myelin basic protein positive (MBP+) myelinating oligodendrocytes, A2B5+ cells were plated into 10-cm PDL coated culture plates in FGF/PDGF free growth medium supplemented with 10 ng/ml CNTF and 15 nM T3 and were immediately treated for with Compound 1. The cell pellets were collected at 24 hours and 72 hours in culture and stored at −80° C. The cell pellets were subsequently shipped to Metabolon (Morrisville, NC, USA) and maintained at −80° C. during shipping and storage until processed. The cell pellet samples were extracted with methanol under vigorous shaking for 2 min (Glen Mills GenoGrinder 2000) to precipitate protein and dissociate small molecules bound to protein or trapped in the precipitated protein matrix, followed by centrifugation to recover chemically diverse metabolites. The resulting extract were next aliquot and analyzed on Metabolon's HD4 platform. Several types of quality control samples, including recovery standards added prior to extraction, technical replicates from a pool combined from each experimental sample, process and solvent blanks, and spiked a cocktail of QC standards, were applied during sample preparation and analysis for quality assessment and filtering failed samples.

[9] = Plasma concentration of Compound 1 in healthy volunteers; format: in vivo, human
Experimental: as §1
Based on these observations, a population PK/PD model was developed using Monolix to describe circulating cholesterol concentration as a function of plasma concentration of Compound 1 and exposure. The model was developed from cholesterol data from the study described above (Study 1) as well as two additional clinical studies (Study 2 and Study 3) in healthy volunteers. […]

## CC[C@H]1CC[C@@H](Oc2ccc3cc(CN4CCC(C(=O)O)CC4)ccc3c2)CC1 [Compound 1, 1-((6-(((1s,4s)-4-ethylcyclohexyl)oxy)naphthalen-2-yl)methyl)piperidine-4-carboxylic acid]
[1]
  S1P4 activity: known inhibitor
Circulating cholesterol [2]; by daily dose
  concentration of circulating cholesterol in the model: reduced at all daily doses higher than 10 mg
Circulating cholesterol [2]; model prediction, 60 mg QD
  predicted decrease in circulating cholesterol: approximately 35%
Circulating cholesterol [2]; population PK/PD model, plasma concentration of Compound 1
  EC50 for reduction in circulating cholesterol concentration: about 3 μg/mL
Circulating cholesterol [3]; healthy human volunteers
  7-dehydrocholesterol (7-DHC) level: causes accumulation of 7-dehydrocholesterol
Circulating cholesterol [3]; healthy volunteers, 60 mg dose, Study 1
  average decrease in total cholesterol: approximately 20%
Circulating cholesterol [3]; healthy volunteers, QD over 28 days, FIG. 1 (10, 30, 60 mg per day vs placebo)
  total circulating cholesterol: gradual, time- and dose-dependent reduction
neutrophils; 60 mg QD, except the patient who discontinued
  absolute monocyte counts: remained throughout the study in the normal range
neutrophils; Cohort 4, 30 mg
  other participants with decline in absolute neutrophil count: 6 participants
neutrophils; Cohort 5, 60 mg loading dose followed by 10 mg maintenance dose
  other participants with decline in absolute neutrophil count: 6 participants
neutrophils; Cohort 6
  other participants with decline in absolute neutrophil count: 5 participants
neutrophils; Cohort 6, 60 mg
  participants with neutropenia AE leading to discontinuation: 1 participant
neutrophils; Cohort 7
  other participants with decline in absolute neutrophil count: 5 participants
neutrophils; Cohort 7, 90 mg loading dose followed by 30 mg maintenance dose
  participants with neutropenia AE leading to discontinuation: 1 participant
neutrophils; all doses ≥30 mg
  other participants with decline in absolute neutrophil count: 22 participants
neutrophils; doses ≥30 mg
  absolute neutrophil count from baseline: dose-dependent decline
neutrophils; low doses <30 mg, Cohorts 1, 2, and 3
  extent of neutrophil count decline: indistinguishable from placebo control
neutrophils; whole study of Example 1
  participants who developed CTCAE grade 3 neutropenia: Two of 56
Human iPSC-derived OPCs
  number of MBP+ cells relative to control: increased
[4]
  remyelination (myelinated axons in corpus callosum lesions): dose dependent enhancement of remyelination
[5]
  amount of MBP+ myelinated axon clusters relative to control: increased
[6]
  myelination (MBP level by Western blotting): promoted myelination in OPC/DRG co-culture assay in a dose-dependent manner
[7]
  remyelination: enhanced remyelination
[8]
  dose for 90% of maximum observed biologic effect (ED90): 3 mg/kg
  minimal efficacious dose (remyelinated axon fibers in the lesions): 0.3 mg/kg
  remyelination (myelinated axons, toluidine blue): enhanced remyelination in a dose dependent manner
Rat OPCs; 24 hours
  7-DHC vs vehicle control: 8.3 folds
  cholesterol vs vehicle control: 0.64 folds
  desmosterol vs vehicle control: 0.44 folds
Rat OPCs; 72 hours
  7-DHC vs vehicle control: 12.86 folds
  cholesterol vs vehicle control: insignificant change
  desmosterol vs vehicle control: 0.4 folds
[9]; daily dose of 60 mg
  steady-state concentration of Compound 1: about 3 μg/mL
[9]; daily dosing
  time of increase to steady-state concentrations of Compound 1 in plasma: approximately 15 days

From US20230390270A1, “METHODS FOR TREATING REMITTING MULTIPLE SCLEROSIS” (BIOGEN MA INC., priority 2020, published 2023)
